The target in this data set is HSD17B13. The settings on record: ASO, HepaRG.

Our source for the target mRNA inhibition values is the OligoGym collection.

After the bases stand the sugars from the 5' end (letter, count) and the backbone: PS all phosphorothioate, else s phosphorothioate and o phosphodiester by linkage. Methylation of C is not given here. e = 2'-O-(2-methoxyethyl) (MOE); k = constrained ethyl (cEt); d = 2'-deoxy (DNA); m = 2'-O-methyl

Turning to TGAAAACTCAGCCAGC (sugars k3 d10 k3, PS), the target mRNA inhibition reads like this: (0.02 µM) 15%; (0.078 µM) 33%; (0.313 µM) 65%; (1 µM) 77%; (1.25 µM) 80%; (5 µM) 95%.

The sequence GTAAAGGCTGGGTGAG (sugars k3 d10 k3, PS) displayed a target mRNA inhibition (1 µM) of 41%.

Turning to ATAAGTAGTCTGCCTG (sugars k3 d10 k3, PS), the target mRNA inhibition (1 µM) was 43%.

In turn, GAACCGTATTCCCAAC (sugars k3 d10 k3, PS) yielded a target mRNA inhibition (1 µM) of 72%.

Consider GTTACATCACCCACTT (sugars k3 d10 k3, PS), for which, for the setting “1 µM”, the target mRNA inhibition came to 41%.

For “TGACAATGGTTGCCAC (sugars kkdddddddddkekek, PS)”, where the note is “1 µM”, the target mRNA inhibition amounted to 38%.

CATTCTAAACTACTAT (sugars k3 d10 k3, PS) gave a target mRNA inhibition (1 µM) of 11%.

As to AGGCAGTTGAAGTTGA (sugars k3 d10 k3, PS), the target mRNA inhibition (1 µM) turned out to be 47%.

On to AGTAAACGACTCTGTA (sugars k3 d10 k3, PS), for which the target mRNA inhibition (1 µM) came out at 33%.

With GGCACTCAGCTGCAGT (sugars k3 d10 k3, PS), the target mRNA inhibition (1 µM) came out at 49%.

Where the note is “1 µM”, AGAGTATTTCCTCTGG (sugars k3 d10 k3, PS) yielded a target mRNA inhibition of 32%.

Where the note is “1 µM”, “GAAAUTGATACACCAA (sugars k3 d1 m1 d8 k3, PS)” registered a target mRNA inhibition of 58%.

Where the note is “1 µM”, TTACAGCCTTAGAGTG (sugars k3 d10 k3, PS) yielded a target mRNA inhibition of 21%.

CAGACCTATGAAAAAC (sugars k3 d10 k3, PS): the target mRNA inhibition (1 µM) is 26%.

Consider CATAAAAATCGCTGCT (sugars k3 d10 k3, PS), for which the target mRNA inhibition (1 µM) is 45%.

TCATAGTTTATATGGA (sugars k3 d10 k3, PS) showed a target mRNA inhibition (1 µM) of 44%.

In the case of “AAGAUACCCAGGTTGC (sugars k3 d1 m1 d8 k3, PS)”, the target mRNA inhibition (1 µM) amounted to 37%.

Turning to TGCATCTTAAGATACC (sugars k3 d10 k3, PS), where the note is “1 µM”, the target mRNA inhibition came out at 81%.

For the sequence CCCAGCATTATTCACC (sugars k3 d10 k3, PS), where the note is “1 µM”, the target mRNA inhibition was found to be 19%.

TGAAGTTAGTATAGTT (sugars k3 d10 k3, PS) returned a target mRNA inhibition (1 µM) of 43%.

“GTTCUTGTTGATATTC (sugars k3 d1 m1 d8 k3, PS)” came in with a target mRNA inhibition (1 µM) of 70%.

With CTAAATTTCAGTACCC (sugars k3 d10 k3, PS), the target mRNA inhibition (1 µM) is 33%.

For the sequence “AGGCUGTAAGAGTCAG (sugars k3 d1 m1 d8 k3, PS)”, the target mRNA inhibition (1 µM) came out at 52%.

For the sequence “CAGCATTGATTCGAAA (sugars kkdddddddddkekek, PS)”, the target mRNA inhibition (1 µM) was determined as 58%.

For the sequence CCCACAGAACCAATAT (sugars k3 d10 k3, PS), the target mRNA inhibition (1 µM) was determined as 16%.

With “GTGCATCTTAAGATAC (sugars k3 d1 m1 d8 k3, PS)”, for the setting “1 µM”, the target mRNA inhibition is 40%.

CCTAAGATAAAATTGC (sugars k3 d10 k3, PS) showed a target mRNA inhibition (1 µM) of 18%.

As for “ATGTATCTTATAAGAC (sugars k3 d9 k3 e1, PS)”, the target mRNA inhibition (1 µM) stood at 24%.

Take TCAGTAGAGAGCATAA (sugars k3 d10 k3, PS): for the setting “1 µM”, the target mRNA inhibition is 52%.

GATATTGATATACGAT (sugars k3 d10 k3, PS): the target mRNA inhibition (1 µM) was determined as 2%.

“TGACAATGGTTGATAG (sugars k3 d1 m1 d8 k3, PS)” registered a target mRNA inhibition (1 µM) of 42%.

TGCTAAAAGCTCACCA (sugars k3 d10 k3, PS): the target mRNA inhibition (1 µM) was 49%.

Take TATATGTTGATGTTAC (sugars k3 d10 k3, PS): the target mRNA inhibition (1 µM) amounted to 34%.

As to “TATGAAGTTAGTATAG (sugars k3 d9 k3 e1, PS)”, the target mRNA inhibition (1 µM) stood at 13%.

For the setting “1 µM”, TCCAAATCAGGTAGTT (sugars k3 d10 k3, PS) displayed a target mRNA inhibition of 22%.

As for GCTGCTAGTGCCAAAC (sugars k3 d10 k3, PS), where the note is “1 µM”, the target mRNA inhibition amounted to 67%.

Where the note is “1 µM”, “AAGACATTCTAGCCTG (sugars kkdddddddddkekek, PS)” came in with a target mRNA inhibition of 25%.

Regarding “ATGAGGTTTTGATACC (sugars k3 d9 k3 e1, PS)”, the target mRNA inhibition (1 µM) is 20%.

ATTTAGCATTGCCTGT (sugars k3 d10 k3, PS) came in with a target mRNA inhibition (1 µM) of 10%.

The sequence TCTTCTCTTGGGTCCA (sugars k3 d10 k3, PS) displayed a target mRNA inhibition (1 µM) of 59%.

“ACTTGAACAGTCTTAA (sugars k3 d9 k3 e1, PS)”: for the setting “1 µM”, the target mRNA inhibition was determined as 60%.

For “GAGTGCATCTTAAGAT (sugars k3 d9 k3 e1, PS)”, the target mRNA inhibition (1 µM) is 34%.

As for AGCTGTGCACTCATTC (sugars k3 d10 k3, PS), for the setting “1 µM”, the target mRNA inhibition came to 57%.

For AGCAAAGTTTGGGCAG (sugars k3 d10 k3, PS), the target mRNA inhibition (1 µM) came out at 44%.

Sequence CATATCCAGTAGGTGT (sugars k3 d10 k3, PS) returned a target mRNA inhibition (1 µM) of 37%.

For the setting “1 µM”, TCAAGTAATAAAGTCC (sugars k3 d10 k3, PS) gave a target mRNA inhibition of 49%.

The sequence ACTGAAGGTCTGAGCT (sugars k3 d10 k3, PS) showed a target mRNA inhibition (1 µM) of 20%.

As to TCATTTAGAATACGCT (sugars k3 d10 k3, PS), the target mRNA inhibition (1 µM) is 20%.

As for AAGATATTGATATACG (sugars k3 d10 k3, PS), the target mRNA inhibition (1 µM) stood at 45%.

Under “1 µM”, GACATAACTACTTCAG (sugars k3 d10 k3, PS) came in with a target mRNA inhibition of 66%.

Turning to “GCATCAAGACATTCTA (sugars k3 d1 m1 d8 k3, PS)”, the target mRNA inhibition (1 µM) amounted to 51%.

In the case of GAACACTGTCATAAAG (sugars k3 d10 k3, PS), the target mRNA inhibition (1 µM) was 43%.

In turn, AAAAGTGTCCTCGATC (sugars k3 d10 k3, PS) registered a target mRNA inhibition (1 µM) of 17%.

As to GATACTGGTGGACAAG (sugars k3 d10 k3, PS), the target mRNA inhibition (1 µM) was determined as 13%.

The sequence “GGGAGGTAGCTTTTGT (sugars k3 d1 m1 d8 k3, PS)” showed a target mRNA inhibition (1 µM) of 17%.

AACCCAGTATTCACAA (sugars k3 d10 k3, PS) had a target mRNA inhibition (1 µM) of 0%.

Under “1 µM”, “GCTGUAAGAGTCAGTA (sugars k3 d1 m1 d8 k3, PS)” showed a target mRNA inhibition of 28%.

With “CTAAAATTGTCTAAAC (sugars k3 d9 k3 e1, PS)”, the target mRNA inhibition (1 µM) was 7%.

Regarding GCTGAGAGTTCTACAC (sugars k3 d10 k3, PS), where the note is “1 µM”, the target mRNA inhibition came out at 45%.

ACATCTCTGGGACCAA (sugars k3 d10 k3, PS): the target mRNA inhibition (1 µM) was determined as 78%.

Regarding TGCATAAGAGATGAGT (sugars k3 d10 k3, PS), the target mRNA inhibition (1 µM) was found to be 19%.

In the case of AATATATACCTGTTGC (sugars k3 d10 k3, PS), under “1 µM”, the target mRNA inhibition amounted to 38%.

“TTGGUAAGTATTCCAT (sugars k3 d1 m1 d8 k3, PS)”: the target mRNA inhibition (1 µM) came to 13%.

On to “GTATTCCATCTATCAG (sugars k3 d9 k3 e1, PS)”, for which the target mRNA inhibition (1 µM) was 51%.

In the case of GAATCCAGATCTGCCC (sugars k3 d10 k3, PS), the target mRNA inhibition (1 µM) is 29%.

On to ATCTTAAGAGAAGGTG (sugars k3 d10 k3, PS), for which the target mRNA inhibition (1 µM) stood at 43%.

“AGGAUAGTCCATGCAA (sugars k3 d1 m1 d8 k3, PS)” came in with a target mRNA inhibition (1 µM) of 55%.

Sequence TTAAGCAGATGGCTTA (sugars k3 d10 k3, PS) had a target mRNA inhibition (1 µM) of 0%.

With GTAGTCCTAGGGAGGA (sugars k3 d10 k3, PS), the target mRNA inhibition runs as follows: (0.02 µM) 20%; (0.078 µM) 50%; (0.313 µM) 62%; (1 µM) 77%; (1.25 µM) 75%; (5 µM) 86%.

Turning to GCCAGTACAGTTCCTT (sugars k3 d10 k3, PS), for the setting “1 µM”, the target mRNA inhibition stood at 61%.

For CTGATGTCAGACCTCT (sugars k3 d10 k3, PS), under “1 µM”, the target mRNA inhibition worked out at 35%.

Regarding CATCTCTGGGACCAAG (sugars k3 d10 k3, PS), the target mRNA inhibition (1 µM) amounted to 51%.

On to “ATTCUGTGGCATGGCT (sugars k3 d1 m1 d8 k3, PS)”, for which the target mRNA inhibition (1 µM) came to 59%.

Sequence CAGTACAGTTCCTTTT (sugars k3 d10 k3, PS) showed a target mRNA inhibition (1 µM) of 43%.

In turn, GATGTGGCCATGATTT (sugars k3 d10 k3, PS) displayed a target mRNA inhibition (1 µM) of 9%.

Regarding “ACATCTCTGGGACCAA (sugars k3 d1 m1 d8 k3, PS)”, the target mRNA inhibition (1 µM) stood at 68%.

The sequence GCCTAAAGGAGATCTG (sugars k3 d10 k3, PS) gave a target mRNA inhibition (1 µM) of 67%.

For the sequence GATACTTACCAATATG (sugars k3 d10 k3, PS), the target mRNA inhibition (1 µM) was found to be 22%.

Turning to “CAGATTGGAATGCTAC (sugars kkdddddddddkekek, PS)”, under “1 µM”, the target mRNA inhibition is 57%.

Sequence “ATCAAGACATTCTAGC (sugars k4 m1 d8 k3, PS)” gave a target mRNA inhibition (1 µM) of 37%.

GTTTTATAACTGAGCT (sugars k3 d10 k3, PS): the target mRNA inhibition runs as follows: (0.02 µM) 16%; (0.078 µM) 29%; (0.313 µM) 53%; (1 µM) 84%; (1.25 µM) 84%; (5 µM) 85%.

Sequence TGCATTAATGCCACCC (sugars k3 d10 k3, PS) came in with a target mRNA inhibition (1 µM) of 22%.

The sequence TTAGCAAGCTAAGAGA (sugars k3 d10 k3, PS) yielded a target mRNA inhibition (1 µM) of 42%.

In turn, “TTAGUCTTGATGTAGT (sugars k3 d1 m1 d8 k3, PS)” yielded a target mRNA inhibition (1 µM) of 50%.

Consider AGAGAGTAATCAGTTT (sugars k3 d10 k3, PS), for which the target mRNA inhibition (1 µM) stood at 39%.

In turn, ATCAAATGTATGTGCT (sugars k3 d10 k3, PS) came in with a target mRNA inhibition (1 µM) of 73%.

Regarding TCATTTAGCAGCTTGG (sugars k3 d10 k3, PS), the target mRNA inhibition is, setting by setting: (0.02 µM) 12%; (0.078 µM) 31%; (0.313 µM) 43%; (1 µM) 79%; (1.25 µM) 87%; (5 µM) 84%.

Consider ACAAGAGTTCTTGCAG (sugars k3 d10 k3, PS), for which the target mRNA inhibition (1 µM) was found to be 29%.
